From ChEMBL document CHEMBL4000152, “Synthesis and Antimalarial Activity of Mallatojaponin C and Related Compounds” (J Nat Prod, 2016)

Assays:
Plasmodium falciparum [1] = assay: Antiplasmodial activity against intraerythrocytic stage of Plasmodium falciparum Dd2 assessed as parasite growth inhibition after 72 hrs by SYBR Green I dye-based assay; type: functional; details: Dd2, 72 h
Plasmodium falciparum [2] = assay: Antiplasmodial activity against Plasmodium falciparum FcB1/Columbia infected in human erythrocytes assessed as parasite growth inhibition after 24 hrs by [3H]-hypoxanthine incorporation assay; type: functional, cell-based
[3] = Stability of the compound under freezing condition; type: physicochemical

In the case of `CC(=O)c1c(O)cc(O)c(CC=C(C)C)c1O`, the IC50 (Plasmodium falciparum [1]) is reported as > 20 µM.

`CC(=O)c1c(O)cc(O)c(C/C=C(\C)CCC=C(C)C)c1O` gave an IC50 (Plasmodium falciparum [1]) of 6.6 µM.

For `COc1cc(O)c(C(C)=O)c(O)c1Cc1c(OC)cc(O)c(C(C)=O)c1O`, the IC50 (Plasmodium falciparum [2]) was 17.6 µM and the IC50 (Plasmodium falciparum [1]) was 8.1 µM.

In the case of `COc1cc(O)c(C(C)=O)c(O)c1CC=C(C)C`, the IC50 (Plasmodium falciparum [2]) is reported as 7.4 µM and the IC50 (Plasmodium falciparum [1]) is reported as 1.7 µM.

With `CC(=O)c1c(O)c(CC=C(C)C)c(O)c(C(c2ccc(F)cc2)c2c(O)cc(O)c(CC=C(C)C)c2O)c1O` (centres undefined) the Stability [3] was “Unstable” and the IC50 (Plasmodium falciparum [1]) was 2 to 4 µM.

For `COc1cc(O)c(C(C)=O)c(O)c1C/C=C(/C)CC/C=C(/C)CCC=C(C)C`, the IC50 (Plasmodium falciparum [1]) was 0.56 µM.

`COc1c(C/C=C(\C)CCC=C(C)C)c(O)c(C(C)=O)c(O)c1Cc1c(O)c(C(C)=O)c(O)c(C/C=C(\C)CCC=C(C)C)c1OC` gave an IC50 (Plasmodium falciparum [2]) of 6 µM and an IC50 (Plasmodium falciparum [1]) of 1.7 µM.

In the case of `COc1cc(O)c(C(C)=O)c(O)c1CCC(C)(C)O`, the IC50 (Plasmodium falciparum [1]) is reported as > 20 µM.

For `CC(=O)c1c(O)cc(O)c(C/C=C(/C)CC/C=C(/C)CCC=C(C)C)c1O`, the IC50 (Plasmodium falciparum [1]) was 3.6 µM.

In the case of `COc1c(CCC(C)(C)O)c(O)c(C(C)=O)c(O)c1Cc1c(O)c(C(C)=O)c(O)c(CCC(C)(C)O)c1OC`, the IC50 (Plasmodium falciparum [1]) is reported as > 10 µM.

Work on `COc1cc(O)c(C(C)=O)c(O)c1C/C=C(\C)CCC=C(C)C` yielded an IC50 (Plasmodium falciparum [2]) of 4.4 µM and an IC50 (Plasmodium falciparum [1]) of 0.57 µM.

With `COc1cc(O)c(C(C)=O)c(O)c1` the IC50 (Plasmodium falciparum [1]) was > 20 µM.

With `CC(=O)c1c(O)cc(O)cc1O` [2,4,6-TRIHYDROXYACETOPHENONE] the IC50 (Plasmodium falciparum [1]) was > 20 µM.

`COc1c(CC=C(C)C)c(O)c(C(C)=O)c(O)c1Cc1c(O)c(C(C)=O)c(O)c(CC=C(C)C)c1OC` [MALLOTOJAPONIN C] showed an IC50 (Plasmodium falciparum [2]) of 0.75 µM.
